The test concerns the target recombinant Human Phosphodiesterase B2 (PDE4B2) (Homo sapiens, UniProt Q07343). The test can be described thus: Human Phosphodiesterase B2 Alpha Screen Assay. The class given is biochemical. Particulars: Alpha Screen cAMP assay. How it is done:
Human Phosphodiesterase B2 Alpha Screen Assay
The assay uses recombinant Human Phosphodiesterase B2 (PDE4B2) produced in house (PrAZL0133), stored at −20° C. The substrate uses cAMP, part of the Alpha Screen cAMP kit (Perkin Elmer, Cat# 6760625M), stored at 4° C. The Alpha Screen kit also includes biotinylated cAMP, acceptor and donor beads.
The assay additions were as follows: Test compounds and controls were added to white 384-well flat-bottom plates (Greiner, Cat# 781075), 0.2 μl in 100% DMSO, followed by 10 μl PDE4B2 in reaction buffer. The reaction buffer constitution was: 50 mM Tris (pH 7.5), 8.3 mM MgCl2, 1.7 mM EGTA and 0.01% (w/v) Brij®35. The enzyme and the compounds were incubated at room temperature for 15 minutes. Then 10 μl cAMP in reaction buffer was added. The assay was stopped after 60 minutes incubation at room temperature by adding 10 μl acceptor beads in detection buffer with 40 mM EDTA. The detection buffer constitution was: 5 mM Tris (pH 7.5), 0.1% (w/v) BSA and 0.1% (v/v) Tween 20. This addition followed by an addition of 10 μl donor beads in detection buffer, with biotinylated cAMP. The plates were then incubated, dark at room temperature, for 5 hours followed by measurement on a Fusion™-α analyser. IC50 values (presented in Table 4) were determined using Xlfit curve fitting using model 205.
(In general: Cyclic AMP is a second messenger, typically raised through Gs and lowered through Gi signalling.)

The term IC50 denotes the concentration that inhibits the measured activity by half.

recombinant Human Phosphodiesterase B2 (PDE4B2), sequence (Q07343 1-564 isoform Q07343-2): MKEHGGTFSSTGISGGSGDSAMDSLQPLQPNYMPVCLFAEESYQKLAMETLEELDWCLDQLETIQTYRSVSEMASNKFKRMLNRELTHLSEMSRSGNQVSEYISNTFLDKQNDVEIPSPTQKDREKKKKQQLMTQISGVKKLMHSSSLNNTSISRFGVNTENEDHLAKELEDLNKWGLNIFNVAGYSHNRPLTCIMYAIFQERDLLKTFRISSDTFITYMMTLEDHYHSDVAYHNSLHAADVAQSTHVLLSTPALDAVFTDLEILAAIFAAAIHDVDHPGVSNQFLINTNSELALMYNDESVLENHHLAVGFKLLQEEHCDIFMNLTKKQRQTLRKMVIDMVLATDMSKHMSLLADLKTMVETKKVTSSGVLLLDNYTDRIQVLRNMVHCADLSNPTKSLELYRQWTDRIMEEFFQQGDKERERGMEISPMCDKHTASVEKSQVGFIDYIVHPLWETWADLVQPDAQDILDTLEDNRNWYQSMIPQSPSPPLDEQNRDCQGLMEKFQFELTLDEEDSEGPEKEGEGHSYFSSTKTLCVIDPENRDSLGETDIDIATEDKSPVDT

As to `O=C(Cc1ccc(O)cc1)N[C@H]1CC[C@@H](n2c(=O)c3cc(F)cnc3n(C3CCSCC3)c2=O)CC1` [Example 15, N-{cis-4-[6-fluoro-2,4-dioxo-1-(tetrahydro-2H-thiopyran-4-yl)-1,4-dihydropyrido[2,3-d]pyrimidin-3(2H)-yl]cyclohexyl}-2-(4-hydroxyphenyl)acetamide], the concentration for half-maximal inhibition (IC50) is 1.75 nM. For `CC(C)CC(=O)N[C@H]1CC[C@@H](n2c(=O)c3cc(F)cnc3n(C3CCSCC3)c2=O)CC1` [Example 21, N-{cis-4-[6-fluoro-2,4-dioxo-1-(tetrahydro-2H-thiopyran-4-yl)-1,4-dihydropyrido[2,3-d]pyrimidin-3(2H)-yl]cyclohexyl}-3-methylbutanamide], the IC50 stood at 4.72 nM. Then `O=C(N[C@H]1CC[C@@H](n2c(=O)c3cc(F)cnc3n(C3CCSCC3)c2=O)CC1)c1cccc(O)c1` [Example 14, N-{cis-4-[6-fluoro-2,4-dioxo-1-(tetrahydro-2H-thiopyran-4-yl)-1,4-dihydropyrido[2,3-d]pyrimidin-3(2H)-yl]cyclohexyl}-3-hydroxybenzamide], with 1.8 nM; and `O=C(N[C@H]1CC[C@@H](n2c(=O)c3cc(F)cnc3n(C3CCSCC3)c2=O)CC1)C(O)c1ccccc1` (relative stereo) [Example 22, N-{cis-4-[6-fluoro-2,4-dioxo-1-(tetrahydro-2H-thiopyran-4-yl)-1,4-dihydropyrido[2,3-d]pyrimidin-3(2H)-yl]cyclohexyl}-2-hydroxy-2-phenylacetamide], with 0.877 nM; and `O=C(N[C@H]1CC[C@@H](n2c(=O)c3cc(F)cnc3n(C3CCSC3)c2=O)CC1)c1ccccc1O` (relative stereo) [Example 30, N-{cis-4-[6-fluoro-2,4-dioxo-1-(tetrahydro-3-thienyl)-1,4-dihydropyrido[2,3-d]pyrimidin-3(2H)-yl]cyclohexyl}-2-hydroxybenzamide], with 6.45 nM.

For `O=C(N[C@H]1CC[C@@H](n2c(=O)c3cc(F)cnc3n(C3CCSC3)c2=O)CC1)c1cn2ccccc2n1` (relative stereo) [Example 28, N-{cis-4-[6-fluoro-2,4-dioxo-1-(tetrahydro-3-thienyl)-1,4-dihydropyrido[2,3-d]pyrimidin-3(2H)-yl]cyclohexyl}imidazo[1,2-a]pyridine-2-carboxamide], the half-inhibitory concentration (IC50) was determined as 0.97 nM. The value for `O=C(N[C@H]1CC[C@@H](n2c(=O)c3cc(F)cnc3n(C3CCSCC3)c2=O)CC1)c1cccn2ccnc12` [Example 25, N-{cis-4-[6-fluoro-2,4-dioxo-1-(tetrahydro-2H-thiopyran-4-yl)-1,4-dihydropyrido[2,3-d]pyrimidin-3(2H)-yl]cyclohexyl}imidazo[1,2-a]pyridine-8-carboxamide] was 5.59 nM; that for `O=C(N[C@H]1CC[C@@H](n2c(=O)c3cc(F)cnc3n(C3CCSCC3)c2=O)CC1)c1ccco1` [Example 24, N-{cis-4-[6-fluoro-2,4-dioxo-1-(tetrahydro-2H-thiopyran-4-yl)-1,4-dihydropyrido[2,3-d]pyrimidin-3(2H)-yl]cyclohexyl}-2-furamide] was 2.76 nM; that for `O=C(N[C@H]1CC[C@@H](n2c(=O)c3cc(F)cnc3n(C3CCSCC3)c2=O)CC1)c1ccc(O)cc1` [Example 16, N-{cis-4-[6-fluoro-2,4-dioxo-1-(tetrahydro-2H-thiopyran-4-yl)-1,4-dihydropyrido[2,3-d]pyrimidin-3(2H)-yl]cyclohexyl}-4-hydroxybenzamide] was 1.69 nM. Then `O=C(N[C@H]1CC[C@@H](n2c(=O)c3cc(F)cnc3n(C3CCSCC3)c2=O)CC1)C1CC1` [Example 1, N-{cis-4-[6-Fluoro-2,4-dioxo-1-(tetrahydro-2H-thiopyran-4-yl)-1,4-dihydropyrido[2,3-d]pyrimidin-3(2H)-yl]cyclohexyl}cyclopropanecarboxamide], with 4.59 nM. For the compound `O=C(N[C@H]1CC[C@@H](n2c(=O)c3cc(F)cnc3n(C3CCSCC3)c2=O)CC1)c1cc2ccccn2n1` [Example 4, N-{cis-4-[6-fluoro-2,4-dioxo-1-(tetrahydro-2H-thiopyran-4-yl)-1,4-dihydropyrido[2,3-d]pyrimidin-3(2H)-yl]cyclohexyl}pyrazolo[1,5-a]pyridine-2-carboxamide], the IC50 came to 0.674 nM. Then `COc1ccc(C(=O)N[C@H]2CC[C@@H](n3c(=O)c4cc(F)cnc4n(C4CCSCC4)c3=O)CC2)cc1O` [Example 7, N-{cis-4-[6-fluoro-2,4-dioxo-1-(tetrahydro-2H-thiopyran-4-yl)-1,4-dihydropyrido[2,3-d]pyrimidin-3(2H)-yl]cyclohexyl}-3-hydroxy-4-methoxybenzamide], with 0.874 nM. As to `O=C(N[C@H]1CC[C@@H](n2c(=O)c3cc(F)cnc3n(C3CCSCC3)c2=O)CC1)C1CCCCC1` [Example 18, N-{cis-4-[6-fluoro-2,4-dioxo-1-(tetrahydro-2H-thiopyran-4-yl)-1,4-dihydropyrido[2,3-d]pyrimidin-3(2H)-yl]cyclohexyl}cyclohexanecarboxamide], the IC50 was 2.15 nM. Then `O=C(N[C@H]1CC[C@@H](n2c(=O)c3cc(F)cnc3n(C3CCSCC3)c2=O)CC1)c1ccccc1O` [Example 17, N-{cis-4-[6-fluoro-2,4-dioxo-1-(tetrahydro-2H-thiopyran-4-yl)-1,4-dihydropyrido[2,3-d]pyrimidin-3(2H)-yl]cyclohexyl}-2-hydroxybenzamide], with 4.65 nM. The value for `O=C(N[C@H]1CC[C@@H](n2c(=O)c3cc(F)cnc3n(C3CCSCC3)c2=O)CC1)c1cn2ccccc2n1` [Example 2, N-{cis-4-[6-Fluoro-2,4-dioxo-1-(tetrahydro-2H-thiopyran-4-yl)-1,4-dihydropyrido[2,3-d]pyrimidin-3(2H)-yl]cyclohexyl}imidazo[1,2-a]pyridine-2-carboxamide] was 1.1 nM; that for `O=C(N[C@H]1CC[C@@H](n2c(=O)c3cc(F)cnc3n(C3CCSCC3)c2=O)CC1)c1cc(CO)ccc1O` [Example 26, N-{cis-4-[6-fluoro-2,4-dioxo-1-(tetrahydro-2H-thiopyran-4-yl)-1,4-dihydropyrido[2,3-d]pyrimidin-3(2H)-yl]cyclohexyl}-2-hydroxy-5-(hydroxymethyl)benzamide] was 4.31 nM.

For the compound `O=C(CNC(=O)c1ccccc1O)N[C@H]1CC[C@@H](n2c(=O)c3cc(F)cnc3n(C3CCSCC3)c2=O)CC1` [Example 6, N-[2-({cis-4-[6-fluoro-2,4-dioxo-1-(tetrahydro-2H-thiopyran-4-yl)-1,4-dihydropyrido[2,3-d]pyrimidin-3(2H)-yl]cyclohexyl}amino)-2-oxoethyl]-2-hydroxybenzamide], the half-maximal inhibitory concentration (IC50) was 1.02 nM. Then `O=C(N[C@H]1CC[C@@H](n2c(=O)c3cc(F)cnc3n(C3CCSCC3)c2=O)CC1)c1cccc2cccnc12` [Example 3, N-{cis-4-[6-fluoro-2,4-dioxo-1-(tetrahydro-2H-thiopyran-4-yl)-1,4-dihydropyrido[2,3-d]pyrimidin-3(2H)-yl]cyclohexyl}quinoline-8-carboxamide], with 1.31 nM; and `Cc1ccc(C(=O)N[C@H]2CC[C@@H](n3c(=O)c4cc(F)cnc4n(C4CCSCC4)c3=O)CC2)cc1O` [Example 10, N-{cis-4-[6-fluoro-2,4-dioxo-1-(tetrahydro-2H-thiopyran-4-yl)-1,4-dihydropyrido[2,3-d]pyrimidin-3(2H)-yl]cyclohexyl}-3-hydroxy-4-methylbenzamide], with 1.12 nM; and `O=C(N[C@H]1CC[C@@H](n2c(=O)c3cc(F)cnc3n(C3CCSCC3)c2=O)CC1)c1ncccc1O` [Example 20, N-{cis-4-[6-fluoro-2,4-dioxo-1-(tetrahydro-2H-thiopyran-4-yl)-1,4-dihydropyrido[2,3-d]pyrimidin-3(2H)-yl]cyclohexyl}-3-hydroxypyridine-2-carboxamide], with 5.9 nM. The value for `O=C(N[C@H]1CC[C@@H](n2c(=O)c3cc(F)cnc3n(C3CCSCC3)c2=O)CC1)c1ccccc1` [Example 23, N-{cis-4-[6-fluoro-2,4-dioxo-1-(tetrahydro-2H-thiopyran-4-yl)-1,4-dihydropyrido[2,3-d]pyrimidin-3(2H)-yl]cyclohexyl}benzamide] was 2.72 nM; that for `Cc1ccc(C(=O)N[C@H]2CC[C@@H](n3c(=O)c4cc(F)cnc4n(C4CCSC4)c3=O)CC2)c(O)c1` (relative stereo) [Example 31, N-{cis-4-[6-fluoro-2,4-dioxo-1-(tetrahydro-3-thienyl)-1,4-dihydropyrido[2,3-d]pyrimidin-3(2H)-yl]cyclohexyl}-2-hydroxy-4-methylbenzamide] was 2.75 nM; that for `O=C(N[C@H]1CC[C@@H](n2c(=O)c3cc(F)cnc3n(C3CCSC3)c2=O)CC1)c1cc(CO)ccc1O` (relative stereo) [Example 29, N-{cis-4-[6-fluoro-2,4-dioxo-1-(tetrahydro-3-thienyl)-1,4-dihydropyrido[2,3-d]pyrimidin-3(2H)-yl]cyclohexyl}-2-hydroxy-5-(hydroxymethyl)benzamide] was 5.51 nM.

For the compound `Cc1ccc(C(=O)N[C@H]2CC[C@@H](n3c(=O)c4cc(F)cnc4n(C4CCSCC4)c3=O)CC2)c(O)c1` [Example 9, N-{cis-4-[6-fluoro-2,4-dioxo-1-(tetrahydro-2H-thiopyran-4-yl)-1,4-dihydropyrido[2,3-d]pyrimidin-3(2H)-yl]cyclohexyl}-2-hydroxy-4-methylbenzamide], the IC50 worked out at 3.75 nM.

Values taken from patent publication US20090233907A1, “Pyridopyrimidine Derivatives and Their Use as PDE4 Inhibitors” (ASTRAZENECA AB, priority 2006, published 2009).
